Source: patent US8574563B2 (Bristol-Myers Squibb Company, priority 2006, dated 2013)
Like-named read-outs stand apart in the source and are kept apart here.

Tested on: HCV 1b-377-neo replicon cells
Test: HCV replicon assay, HCV 1b-377-neo replicon cells (1b FRET)
Type: cell-based, Hepatitis C virus genotype 1b
Details: HCV 1b-377-neo replicon cells, HCV 1b genotype; for EC50: read-out: EC50 range against HCV 1b (Table 2, Range)
Method in brief: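 FRET-based replicon assay in HCV 1b-377-neo cells, including a comparison line carrying the NS5A Y2065H mutation that confers resistance to a reference compound.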

Which “EC50 range against HCV 1b (Table 2, Range)” value does the source give for COC(=O)N[C@@H](C(=O)N1CCC[C@H]1c1ncc(-c2ccc(-c3ccc(-c4cnc([C@@H]5CCCN5C(=O)Cc5ccccc5Cl)[nH]4)cc3)cc2)[nH]1)c1ccccc1 [Example 84-66, methyl ((1R)-2-((2S)-2-(5-(4′-(2-((2S)-1-((2-chlorophenyl)acetyl)-2-pyrrolidinyl)-1H-imidazol-5-yl)-4-biphenylyl)-1H-imidazol-2-yl)-1-pyrrolidinyl)-2-oxo-1-phenylethyl)carbamate] here?
The value was “C-D”.

COC(=O)N[C@@H](C(=O)N1CCC[C@H]1c1ncc(-c2ccc(-c3ccc(-c4cnc([C@@H]5CCCN5C(=O)Cc5cccc(Cl)c5)[nH]4)cc3)cc2)[nH]1)c1ccccc1 [Example 84-67, methyl ((1R)-2-((2S)-2-(5-(4′-(2-((2S)-1-((3-chlorophenyl)acetyl)-2-pyrrolidinyl)-1H-imidazol-5-yl)-4-biphenylyl)-1H-imidazol-2-yl)-1-pyrrolidinyl)-2-oxo-1-phenylethyl)carbamate] was tested. Which EC50 (Hepatitis C virus) did it give?
The EC50 was 0.001 to 0.999 nM.

COC(=O)N[C@@H](C(=O)N1CCC[C@H]1c1ncc(-c2ccc(-c3ccc(-c4cnc([C@@H]5CCCN5C(=O)Cc5ccc(Cl)cc5)[nH]4)cc3)cc2)[nH]1)c1ccccc1 [Example 84-68, methyl ((1R)-2-((2S)-2-(5-(4′-(2-((2S)-1-((4-chlorophenyl)acetyl)-2-pyrrolidinyl)-1H-imidazol-5-yl)-4-biphenylyl)-1H-imidazol-2-yl)-1-pyrrolidinyl)-2-oxo-1-phenylethyl)carbamate] was tested. Which EC50 (Hepatitis C virus) did it give?
The EC50 was 1 to 99 nM.

Which EC50 (Hepatitis C virus) does the source give for COC(=O)N[C@@H](C(=O)N1CCC[C@H]1c1ncc(-c2ccc(-c3ccc(-c4cnc([C@@H]5CCCN5C(=O)Cc5ccccc5C)[nH]4)cc3)cc2)[nH]1)c1ccccc1 [Example 84-69, methyl ((1R)-2-((2S)-2-(5-(4′-(2-((2S)-1-((2-methylphenyl)acetyl)-2-pyrrolidinyl)-1H-imidazol-5-yl)-4-biphenylyl)-1H-imidazol-2-yl)-1-pyrrolidinyl)-2-oxo-1-phenylethyl)carbamate] here?
Its EC50 is 0.001 to 0.999 nM.

How did the EC50 (Hepatitis C virus) turn out when COC(=O)N[C@@H](C(=O)N1CCC[C@H]1c1ncc(-c2ccc(-c3ccc(-c4cnc([C@@H]5CCCN5C(=O)Cc5ccc(C)cc5)[nH]4)cc3)cc2)[nH]1)c1ccccc1 [Example 84-70, methyl ((1R)-2-((2S)-2-(5-(4′-(2-((2S)-1-((4-methylphenyl)acetyl)-2-pyrrolidinyl)-1H-imidazol-5-yl)-4-biphenylyl)-1H-imidazol-2-yl)-1-pyrrolidinyl)-2-oxo-1-phenylethyl)carbamate] was run?
The EC50 was 1 to 99 nM.

COC(=O)N[C@@H](C(=O)N1CCC[C@H]1c1ncc(-c2ccc(-c3ccc(-c4cnc([C@@H]5CCCN5C(=O)Cc5cccc(C)c5)[nH]4)cc3)cc2)[nH]1)c1ccccc1 [Example 84-71, methyl ((1R)-2-((2S)-2-(5-(4′-(2-((2S)-1-((3-methylphenyl)acetyl)-2-pyrrolidinyl)-1H-imidazol-5-yl)-4-biphenylyl)-1H-imidazol-2-yl)-1-pyrrolidinyl)-2-oxo-1-phenylethyl)carbamate] was tested. Which EC50 (Hepatitis C virus) did it give?
Its EC50 is 1 to 99 nM.

With COC(=O)N[C@@H](C(=O)N1CCC[C@H]1c1ncc(-c2ccc(-c3ccc(-c4cnc([C@@H]5CCCN5C(=O)Cc5csc(C)n5)[nH]4)cc3)cc2)[nH]1)c1ccccc1 [Example 84-72, methyl ((1R)-2-((2S)-2-(5-(4′-(2-((2S)-1-((2-methyl-1,3-thiazol-4-yl)acetyl)-2-pyrrolidinyl)-1H-imidazol-5-yl)-4-biphenylyl)-1H-imidazol-2-yl)-1-pyrrolidinyl)-2-oxo-1-phenylethyl)carbamate] as the molecule, how does the EC50 (Hepatitis C virus) read?
Its EC50 is 1 to 99 nM.

Which EC50 (Hepatitis C virus) does the source give for COC(=O)N[C@@H](C(=O)N1CCC[C@H]1c1ncc(-c2ccc(-c3ccc(-c4cnc([C@@H]5CCCN5C(=O)Cc5ccsc5)[nH]4)cc3)cc2)[nH]1)c1ccccc1 [Example 84-73, methyl ((1R)-2-oxo-1-phenyl-2-((2S)-2-(5-(4′-(2-((2S)-1-(3-thienylacetyl)-2-pyrrolidinyl)-1H-imidazol-5-yl)-4-biphenylyl)-1H-imidazol-2-yl)-1-pyrrolidinyl)ethyl)carbamate] here?
Its EC50 is 1 to 99 nM.

With COC(=O)N[C@@H](C(=O)N1CCC[C@H]1c1ncc(-c2ccc(-c3ccc(-c4cnc([C@@H]5CCCN5C(=O)Cc5cc(C)no5)[nH]4)cc3)cc2)[nH]1)c1ccccc1 [Example 84-74, methyl ((1R)-2-((2)S-2-(5-(4′-(2-((2S)-1-((3-methyl-5-isoxazolyl)acetyl)-2-pyrrolidinyl)-1H-imidazol-5-yl)-4-biphenylyl)-1H-imidazol-2-yl)-1-pyrrolidinyl)-2-oxo-1-phenylethyl)carbamate] as the molecule, how does the EC50 read?
The EC50 was 0.001 to 0.999 nM.

With COC(=O)N[C@@H](C(=O)N1CCC[C@H]1c1ncc(-c2ccc(-c3ccc(-c4cnc([C@@H]5CCCN5C(=O)CC5CCCCC5)[nH]4)cc3)cc2)[nH]1)c1ccccc1 [Example 84-75, methyl ((1R)-2-((2S)-2-(5-(4′-(2-((2S)-1-(cyclohexylacetyl)-2-pyrrolidinyl)-1H-imidazol-5-yl)-4-biphenylyl)-1H-imidazol-2-yl)-1-pyrrolidinyl)-2-oxo-1-phenylethyl)carbamate] as the molecule, how does the EC50 (Hepatitis C virus) read?
The EC50 was 1 to 99 nM.

COC(=O)N[C@@H](C(=O)N1CCC[C@H]1c1ncc(-c2ccc(-c3ccc(-c4cnc([C@@H]5CCCN5C(=O)[C@H](C)c5ccccc5)[nH]4)cc3)cc2)[nH]1)c1ccccc1 [Example 84-76, methyl ((1R)-2-oxo-1-phenyl-2-((2S)-2-(5-(4′-(2-((2S)-1-((2R)-2-phenylpropanoyl)-2-pyrrolidinyl)-1H-imidazol-5-yl)-4-biphenylyl)-1H-imidazol-2-yl)-1-pyrrolidinyl)ethyl)carbamate] was tested. Which EC50 (Hepatitis C virus) did it give?
Its EC50 is 0.001 to 0.999 nM.

With COC(=O)N[C@@H](C(=O)N1CCC[C@H]1c1ncc(-c2ccc(-c3ccc(-c4cnc([C@@H]5CCCN5C(=O)C5(c6ccccc6)CC5)[nH]4)cc3)cc2)[nH]1)c1ccccc1 [Example 84-77, methyl ((1R)-2-oxo-1-phenyl-2-((2S)-2-(5-(4′-(2-((2S)-1-((1-phenylcyclopropyl)carbonyl)-2-pyrrolidinyl)-1H-imidazol-5-yl)-4-biphenylyl)-1H-imidazol-2-yl)-1-pyrrolidinyl)ethyl)carbamate] as the molecule, how does the EC50 (Hepatitis C virus) read?
Its EC50 is 0.001 to 0.999 nM.

COC(=O)N[C@@H](C(=O)N1CCC[C@H]1c1ncc(-c2ccc(-c3ccc(-c4cnc([C@@H]5CCCN5C(=O)C5(c6ccc(Cl)cc6)CC5)[nH]4)cc3)cc2)[nH]1)c1ccccc1 [Example 84-78, methyl ((1R)-2-((2S)-2-(5-(4′-(2-((2S)-1-((1-(4-chlorophenyl)cyclopropyl)carbonyl)-2-pyrrolidinyl)-1H-imidazol-5-yl)-4-biphenylyl)-1H-imidazol-2-yl)-1-pyrrolidinyl)-2-oxo-1-phenylethyl)carbamate] was tested. Which EC50 (Hepatitis C virus) did it give?
The EC50 was 0.001 to 0.999 nM.

Which EC50 (Hepatitis C virus) does the source give for COC(=O)N[C@@H](C(=O)N1CCC[C@H]1c1ncc(-c2ccc(-c3ccc(-c4cnc([C@@H]5CCCN5C(=O)C(C)(C)c5ccc(Cl)cc5)[nH]4)cc3)cc2)[nH]1)c1ccccc1 [Example 84-79, methyl ((1R)-2-((2S)-2-(5-(4′-(2-((2S)-1-(2-(4-chlorophenyl)-2-methylpropanoyl)-2-pyrrolidinyl)-1H-imidazol-5-yl)-4-biphenylyl)-1H-imidazol-2-yl)-1-pyrrolidinyl)-2-oxo-1-phenylethyl)carbamate] here?
The EC50 was 0.001 to 0.999 nM.

With COC(=O)N[C@@H](C(=O)N1CCC[C@H]1c1ncc(-c2ccc(-c3ccc(-c4cnc([C@@H]5CCCN5C(=O)[C@H](OC)c5ccccc5)[nH]4)cc3)cc2)[nH]1)c1ccccc1 [Example 84-80, methyl ((1R)-2-((2S)-2-(5-(4′-(2-((2S)-1-((2R)-2-methoxy-2-phenylacetyl)-2-pyrrolidinyl)-1H-imidazol-5-yl)-4-biphenylyl)-1H-imdiazol-2-yl)-1-pyrrolidinyl)-2-oxo-1-phenylethyl)carbamate] as the molecule, how does the EC50 read?
Its EC50 is 0.001 to 0.999 nM.

How did the EC50 (Hepatitis C virus) turn out when COC(=O)N[C@@H](C(=O)N1CCC[C@H]1c1ncc(-c2ccc(-c3ccc(-c4cnc([C@@H]5CCCN5C(=O)[C@@](OC)(c5ccccc5)C(F)(F)F)[nH]4)cc3)cc2)[nH]1)c1ccccc1 [Example 84-81, methyl ((1R)-2-oxo-1-phenyl-2-((2S)-2-(5-(4′-(2-((2S)-1-((2S)-3,3,3-trifluoro-2-methoxy-2-phenylpropanoyl)-2-pyrrolidinyl)-1H-imidazol-5-yl)-4-biphenylyl)-1H-imidazol-2-yl)-1-pyrrolidinyl)ethyl)carbamate] was run?
Its EC50 is 0.001 to 0.999 nM.

Which EC50 (Hepatitis C virus) does the source give for COC(=O)N[C@@H](C(=O)N1CCC[C@H]1c1ncc(-c2ccc(-c3ccc(-c4cnc([C@@H]5CCCN5C(=O)[C@H](OC(C)=O)c5ccccc5)[nH]4)cc3)cc2)[nH]1)c1ccccc1 [Example 84-82, (1R)-2-((2S)-2-(5-(4′-(2-((2S)-1-((2R)-2-((methoxycarbonyl)amino)-2-phenylacetyl)-2-pyrrolidinyl)-1H-imidazol-5-yl)-4-biphenylyl)-1H-imidazol-2-yl)-1-pyrrolidinyl)-2-oxo-1-phenylethyl acetate] here?
Its EC50 is 0.001 to 0.999 nM.

COC(=O)N[C@@H](C(=O)N1CCC[C@H]1c1ncc(-c2ccc(-c3ccc(-c4cnc([C@@H]5CCCN5C(=O)[C@@H](OC(C)=O)c5ccccc5)[nH]4)cc3)cc2)[nH]1)c1ccccc1 [Example 84-83, (1S)-2-((2S)-2-(5-(4′-(2-((2S)-1-((2R)-2-((methoxycarbonyl)amino)-2-phenylacetyl)-2-pyrrolidinyl)-1H-imidazol-5-yl)-4-biphenylyl)-1H-imidazol-2-yl)-1-pyrrolidinyl)-2-oxo-1-phenylethyl acetate] was tested. Which EC50 (Hepatitis C virus) did it give?
The EC50 was 0.001 to 0.999 nM.

How did the EC50 (Hepatitis C virus) turn out when COC(=O)N[C@@H](C(=O)N1CCC[C@H]1c1ncc(-c2ccc(-c3ccc(-c4cnc([C@@H]5CCCN5C(=O)Cc5ccccc5CN5CCOCC5)[nH]4)cc3)cc2)[nH]1)c1ccccc1 [Example 84-84, methyl ((1R)-2-((2S)-2-(5-(4′-(2-((2S)-1-((2-(4-morpholinylmethyl)phenyl)acetyl)-2-pyrrolidinyl)-1H-imidazol-5-yl)-4-biphenylyl)-1H-imidazol-2-yl)-1-pyrrolidinyl)-2-oxo-1-phenylethyl)carbamate] was run?
Its EC50 is 0.001 to 0.999 nM.
